In DBAASP:
Values after ≈ are worked out from the molar mass of the structure shown. One block for each molecule: values may come before it.

Key:
Test in all cases: ≥ marks a high value that may be exact or a test limit, other limits are often not marked, values filed in µg/mL are converted to µM
[1] = test system: Acinetobacter johnsonii NCDC 0072
[2] = test system: Pseudomonas aeruginosa ATCC 27853
[3] = test system: Staphylococcus aureus ATCC 29213
[4] = test system: Escherichia coli MTCC 0723
[5] = test system: Listeria monocytogenes ATCC 19111
[6] = test system: Staphylococcus aureus NCDC 0111
[7] = test system: Salmonella enterica subsp. enterica serovar Typhimurium ATCC 14028
[8] = test system: Bacillus cereus NCDC 0240
[9] = test system: Pseudomonas aeruginosa NCDC 0105
Bacillus megaterium = test system: Bacillus megaterium
[10] = test system: Pseudomonas aeruginosa CMCCB 10104
[11] = test system: Escherichia coli ATCC 25922
Shigella dysenteriae = test system: Shigella dysenteriae
[12] = test system: Candida albicans ATCC 2002
[13] = test system: Staphylococcus aureus ATCC 2592
Klebsiella pneumoniae = test system: Klebsiella pneumoniae
[14] = test system: Klebsiella pneumoniae 08040724
[15] = test system: Enterobacter cloacae CGMCC 1.57
[16] = test system: Pseudomonas aeruginosa CGMCC 1.50
[17] = test system: Psychrobacter faecalis X29
[18] = test system: Enterococcus faecium 091299
[19] = test system: Nocardia asteroides 201118
Candida glabrata 090902 = test system: Candida glabrata 090902
[20] = test system: Enterococcus faecalis 981
[21] = test system: Staphylococcus aureus 22401
Bacillus subtilis A47 = test system: Bacillus subtilis A47
[22] = test system: Pseudomonas aeruginosa A62
Escherichia coli 44102 = test system: Escherichia coli 44102
[23] = test system: Pseudomonas aeruginosa DM23155
[24] = test system: Klebsiella pneumoniae DM4299
[25] = test system: Porphyromonas gingivalis ATCC 53978
[26] = test system: Porphyromonas gingivalis ATCC 33277
[27] = test system: Escherichia coli K12 MG1655
[28] = test system: Staphylococcus aureus 68 HER 1049

Compound: CC[C@H](C)[C@H](NC(=O)[C@H](CO)NC(=O)[C@H](Cc1c[nH]c2ccccc12)NC(=O)[C@@H]1CCCN1C(=O)[C@@H](NC(=O)[C@H](C)N)[C@@H](C)CC)C(=O)N[C@@H](Cc1c[nH]c2ccccc12)C(=O)N[C@@H](Cc1c[nH]c2ccccc12)C(=O)N[C@@H](CCCN=C(N)N)C(=O)N[C@@H](CC(C)C)C(=O)N[C@@H](CC(C)C)C(=O)N[C@@H](Cc1ccccc1)C(=O)N[C@@H](CCCCN)C(=O)NCC(=O)O [AIPWSIWWRLLFKG]
MIC [1]: ≥ 200 µM
MIC [2]: 100 µM (≈ 177 µg/mL)
MIC [3]: 6 µM (≈ 10.6 µg/mL)
MIC [4]: ≥ 200 µM
MIC [5]: 3 µM (≈ 5.32 µg/mL)
MIC [6]: 6 µM (≈ 10.6 µg/mL)
MIC [7]: 0.2 µM (≈ 0.355 µg/mL)
MIC [8]: ≥ 100 µM
MIC [9]: ≥ 50 µM

Compound: CC[C@H](C)[C@H](NC(=O)CN)C(=O)NCC(=O)N[C@H](C(=O)N[C@@H](CCCCN)C(=O)N[C@H](C(=O)N[C@@H](CC(C)C)C(=O)NCC(=O)NCC(=O)N[C@H](C(=O)N[C@@H](CCCCN)C(=O)N[C@H](C(=O)N[C@@H](C)C(=O)N[C@@H](CC(C)C)C(=O)N[C@@H](CCCCN)C(=O)NCC(=O)N[C@@H](C)C(=O)N[C@@H](CC(C)C)C(=O)N[C@@H](CCCCN)C(=O)N[C@@H](CCC(=O)O)C(=O)N[C@@H](CC(C)C)C(=O)N[C@@H](C)C(=O)N[C@@H](CO)C(=O)N[C@H](C(=O)N[C@@H](Cc1ccc(O)cc1)C(=O)N[C@H](C(=O)N[C@@H](CC(N)=O)C(N)=O)C(C)C)[C@@H](C)O)[C@@H](C)O)C(C)C)[C@@H](C)CC)[C@@H](C)O [GIGTKILGGVKTALKGALKELASTYVN]
MIC (Bacillus megaterium): 7.21 µM (≈ 19.5 µg/mL)
MIC [10]: 7.21 µM (≈ 19.5 µg/mL)
MIC [11]: 7.21 µM (≈ 19.5 µg/mL)
MIC (Shigella dysenteriae): 0.999 µM (≈ 2.7 µg/mL)
MIC [12]: 1.11 µM (≈ 3 µg/mL)
MIC [13]: 7.21 µM (≈ 19.5 µg/mL)
MIC (Klebsiella pneumoniae): 3.33 µM (≈ 9 µg/mL)

Compound: CC[C@H](C)[C@H](NC(=O)CN)C(=O)N[C@@H](CC(C)C)C(=O)N[C@@H](CC(=O)O)C(=O)N[C@H](C(=O)N[C@@H](CC(C)C)C(=O)N[C@@H](CCCCN)C(=O)N[C@@H](CCC(N)=O)C(=O)N[C@@H](CC(C)C)C(=O)NCC(=O)N[C@@H](CCCCN)C(=O)N[C@@H](C)C(=O)N[C@@H](C)C(=O)N[C@@H](C)C(=O)N[C@@H](CCC(N)=O)C(=O)N[C@@H](CO)C(=O)N[C@@H](CC(C)C)C(=O)N[C@@H](CC(C)C)C(=O)N[C@@H](CO)C(=O)N[C@@H](CCCCN)C(=O)N[C@@H](C)C(=O)N[C@@H](C)C(=O)N[C@H]1CSSC[C@@H](C(=O)O)NC(=O)[C@H]([C@@H](C)O)NC(=O)[C@H](CCCCN)NC(=O)[C@H](C)NC(=O)[C@H](CC(C)C)NC(=O)[C@H](CCCCN)NC1=O)[C@@H](C)O [GILDTLKQLGKAAAQSLLSKAACKLAKTC]
MIC [11]: 50 µM (≈ 147 µg/mL)
MIC [14]: ≥ 100 µM
MIC [15]: ≥ 50 µM
MIC [16]: ≥ 50 µM
MIC [17]: 3.1 µM (≈ 9.13 µg/mL)
MIC [18]: 6.3 µM (≈ 18.5 µg/mL)
MIC [19]: 6.3 µM (≈ 18.5 µg/mL)
MIC (Candida glabrata 090902): ≥ 50 µM
MIC [20]: ≥ 50 µM

Compound: CC[C@H](C)[C@H](N)C(=O)N[C@@H](CC(C)C)C(=O)N1CCC[C@H]1C(=O)N[C@H](C(=O)N[C@H](C(=O)NCC(=O)N[C@@H](CCCCN)C(=O)N[C@H](C(=O)N[C@@H](CC(C)C)C(=O)N[C@@H](CO)C(=O)N[C@H](C(=O)N[C@H](C(=O)N[C@@H](Cc1ccccc1)C(=O)NCC(=O)N[C@@H](CCCCN)C(=O)O)[C@@H](C)CC)[C@@H](C)O)[C@@H](C)CC)[C@@H](C)CC)[C@@H](C)CC [ILPIIGKILSTIFGK]
MIC [21]: 6.25 µM (≈ 10.1 µg/mL)
MIC (Bacillus subtilis A47): 25 µM (≈ 40.3 µg/mL)
MIC [22]: 12.5 µM (≈ 20.2 µg/mL)
MIC (Escherichia coli 44102): ≥ 50 µM

Continued, values first:

MIC [23]: 6 µM (≈ 7.44 µg/mL)
MIC [24]: 3 µM (≈ 3.72 µg/mL)
MIC [11]: 1.5 µM (≈ 1.86 µg/mL)
Compound: CC(=O)N[C@@H](CCCN=C(N)N)C(=O)NCC(=O)N[C@@H](CCCN=C(N)N)C(=O)N[C@@H](CCCCN)C(=O)NCC(=O)NCC(=O)N[C@@H](CCCN=C(N)N)C(=O)N[C@@H](CCCN=C(N)N)C(=O)N[C@@H](CCCCN)C(=O)N[C@@H](CCCCN)C(=O)O [RGRKGGRRKK]

MIC [25]: 1.7 µM (≈ 4.78 µg/mL)
MIC [26]: 1.7 µM (≈ 4.78 µg/mL)
Compound: CC[C@H](C)[C@H](NC(=O)CNC(=O)[C@H](CCC(=O)O)NC(=O)CNC(=O)[C@H](C)NC(=O)CNC(=O)[C@H](Cc1cnc[nH]1)NC(=O)[C@@H]1CCCN1C(=O)[C@@H](N)CCCN=C(N)N)C(=O)N[C@@H](CC(=O)O)C(=O)N[C@@H](CCCN=C(N)N)C(=O)N[C@H](C(=O)N1CCC[C@H]1C(=O)N[C@@H](C)C(=O)NCC(=O)N1CCC[C@H]1C(=O)N[C@@H](CO)C(=O)N1CCC[C@H]1C(=O)N[C@@H](CO)C(=O)N[C@@H](CCC(=O)O)C(=O)N[C@H](C(=O)NCC(=O)N[C@@H](CC(C)C)C(=O)N[C@@H](C)C(=O)N[C@H](C(=O)N1CCC[C@H]1C(=O)N[C@@H](CO)C(=O)NCC(=O)N[C@@H](CCCCN)C(=O)O)[C@@H](C)CC)C(C)C)C(C)C [RPHGAGEGIDRVPAGPSPSEVGLAIPSGK]

MIC [27]: 1.85 µM (≈ 4 µg/mL)
MIC [28]: 1.85 µM (≈ 4 µg/mL)
Compound: CC[C@H](C)[C@H](NC(=O)[C@H](CCCN=C(N)N)NC(=O)[C@H](CCCN=C(N)N)NC(=O)[C@H](CC(C)C)NC(=O)[C@H](CCCCN)NC(=O)[C@H](CCCCN)NC(=O)[C@H](Cc1c[nH]c2ccccc12)NC(=O)[C@H](CCCN=C(N)N)NC(=O)[C@H](CCCCN)NC(=O)[C@H](Cc1c[nH]c2ccccc12)NC(=O)[C@@H](N)Cc1c[nH]c2ccccc12)C(=O)N[C@@H](Cc1ccccc1)C(=O)N[C@@H](CC(C)C)C(=O)N[C@@H](CCSC)C(=O)N[C@@H](CC(C)C)C(=O)O [WWKRWKKLRRIFLML]
